Test results reported in US20070270434A1, “SULFONYL-SUBSTITUTED BICYCLIC COMPOUNDS AS MODULATORS OF PPAR” (KALYPSYS, INC., priority 2006, published 2007).

Key:
Format in all cases: cell-based, murine and human
Conditions in all cases: 20-24 hours
[1] = target: T1, PPAR-delta ligand binding domain fused to GAL4 DNA binding domain (UniProt Q03181); test: Transient transfection transactivation assay in CV-1 cells, PPAR-delta (GAL4 chimera, luciferase reporter)
T1 sequence (Q03181 1-441): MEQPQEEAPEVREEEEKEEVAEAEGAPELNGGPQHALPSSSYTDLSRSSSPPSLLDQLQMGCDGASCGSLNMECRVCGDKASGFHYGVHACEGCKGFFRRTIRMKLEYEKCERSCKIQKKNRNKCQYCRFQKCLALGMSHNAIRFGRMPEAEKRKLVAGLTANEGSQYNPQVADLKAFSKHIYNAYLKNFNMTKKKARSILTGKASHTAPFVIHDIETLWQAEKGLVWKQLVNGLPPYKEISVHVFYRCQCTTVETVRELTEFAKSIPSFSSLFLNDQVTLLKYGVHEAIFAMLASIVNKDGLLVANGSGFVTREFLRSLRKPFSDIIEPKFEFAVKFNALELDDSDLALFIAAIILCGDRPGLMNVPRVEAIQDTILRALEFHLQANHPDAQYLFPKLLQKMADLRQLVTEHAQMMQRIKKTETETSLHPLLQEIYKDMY
Description: (§1) Compounds may be screened for functional potency in transient transfection assays in CV-1 cells for their ability to activate the PPAR subtypes (transactivation assay). A previously established chimeric receptor system was utilized to allow comparison of the relative transcriptional activity of the receptor subtypes on the same synthetic response element and to prevent endogenous receptor activation from complicating the interpretation of results. See, for example, Lehmann, J. M.; Moore, L. B.; Smith-Oliver, T. A; Wilkinson, W. O.; Willson, T. M.; Kliewer, S. A., An antidiabetic thiazolidinedione is a high affinity ligand for peroxisome proliferator-activated receptor […], J. Biol. Chem., 1995, 270, 12953-6. The ligand binding domains for murine and human PPAR-alpha, PPAR-gamma, and PPAR-delta are each fused to the yeast transcription factor GAL4 DNA binding domain. CV-1 cells were transiently transfected with expression vectors for the respective PPAR chimera along with a reporter construct containing four or five copies of the GAL4 DNA binding site driving expression of luciferase. After 8-16 h, the cells are replated into multi-well assay plates and the media is exchanged to phenol-red free DME medium supplemented with 5% delipidated calf serum. 4 hours after replating, cells were treated with either compounds or 1% DMSO for 20-24 hours. Luciferase activity was then assayed with Britelite (Perkin Elmer) following the manufacturer's protocol and measured with either the Perkin Elmer Viewlux or Molecular Devices Acquest (see, for example, Kliewer, S. A., et. al. Cell 1995, 83, 813-819). Rosiglitazone is used as a positive control in the PPARγ assay. Wy-14643 and GW7647 are used as positive controls in the PPARα assay. GW501516 is used as the positive control in the PPARδ assay.

[2] = target: T2, PPAR-alpha ligand binding domain fused to GAL4 DNA binding domain (UniProt Q07869); test: Transient transfection transactivation assay in CV-1 cells, PPAR-alpha (GAL4 chimera, luciferase reporter)
T2 sequence (Q07869 1-468): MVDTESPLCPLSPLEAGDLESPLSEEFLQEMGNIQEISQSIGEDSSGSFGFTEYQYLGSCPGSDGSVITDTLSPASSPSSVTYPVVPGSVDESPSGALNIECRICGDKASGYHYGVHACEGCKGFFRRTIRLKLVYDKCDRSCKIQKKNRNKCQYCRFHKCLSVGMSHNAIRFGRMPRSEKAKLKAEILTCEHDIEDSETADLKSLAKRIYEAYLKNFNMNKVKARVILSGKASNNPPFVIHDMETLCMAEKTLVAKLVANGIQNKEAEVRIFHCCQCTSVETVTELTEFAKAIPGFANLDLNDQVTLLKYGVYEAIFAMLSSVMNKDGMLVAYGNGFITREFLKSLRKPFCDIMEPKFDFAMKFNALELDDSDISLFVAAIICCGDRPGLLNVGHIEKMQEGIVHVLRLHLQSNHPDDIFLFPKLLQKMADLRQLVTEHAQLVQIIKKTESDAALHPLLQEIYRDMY
Description: as §1

[3] = target: T3, PPAR-gamma ligand binding domain fused to GAL4 DNA binding domain (UniProt P37231); test: Transient transfection transactivation assay in CV-1 cells, PPAR-gamma (GAL4 chimera, luciferase reporter)
T3 sequence (P37231 1-505): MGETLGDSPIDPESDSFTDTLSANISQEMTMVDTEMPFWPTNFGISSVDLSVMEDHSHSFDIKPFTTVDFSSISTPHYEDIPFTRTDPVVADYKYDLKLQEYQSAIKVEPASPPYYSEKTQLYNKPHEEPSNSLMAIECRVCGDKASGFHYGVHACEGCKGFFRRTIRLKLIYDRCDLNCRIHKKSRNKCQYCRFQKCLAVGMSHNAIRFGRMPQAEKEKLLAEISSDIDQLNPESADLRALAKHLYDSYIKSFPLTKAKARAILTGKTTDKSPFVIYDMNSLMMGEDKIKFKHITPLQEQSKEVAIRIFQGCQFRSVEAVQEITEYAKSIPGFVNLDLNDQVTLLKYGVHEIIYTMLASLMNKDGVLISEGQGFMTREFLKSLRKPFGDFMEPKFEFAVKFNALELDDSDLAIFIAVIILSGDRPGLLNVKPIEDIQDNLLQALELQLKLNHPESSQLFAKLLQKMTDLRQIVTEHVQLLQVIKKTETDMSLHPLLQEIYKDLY
Description: as §1

EC50 [1] [µM] | EC50 [2] [µM] | EC50 [3] [µM] | Compound
5 to 100 | > 100 | 5 to 100 | O=C(O)C1Cc2cccc(S(=O)(=O)N3CCN(C(=O)Cc4ccc(OC(F)(F)F)cc4)CC3)c2C1 (stereo not drawn) [Example 19, 4-(4-(2-(4-(trifluoromethoxy)phenyl)acetyl)piperazin-1-ylsulfonyl)-2,3-dihydro-1H-indene-2-carboxylic acid]
5 to 100 | > 100 | 5 to 100 | O=C(O)C1Cc2cccc(S(=O)(=O)N3CCN(C(=O)Cc4ccc(C(F)(F)F)cc4)CC3)c2C1 (stereo not drawn) [Example 20, 4-(4-(2-(4-(trifluoromethyl)phenyl)acetyl)piperazin-1-ylsulfonyl)-2,3-dihydro-1H-indene-2-carboxylic acid]
< 5 | 5 to 100 | 5 to 100 | O=C(O)C1Cc2cccc(S(=O)(=O)N3CCN(CCc4ccc(C(F)(F)F)cc4)CC3)c2C1 (stereo not drawn) [Example 21, 4-(4-(4-(trifluoromethyl)phenethyl)piperazin-1-ylsulfonyl)-2,3-dihydro-1H-indene-2-carboxylic acid]
< 5 | 5 to 100 | < 5 | O=C(O)C1Cc2cccc(S(=O)(=O)N3CCN(CCCc4ccc(OC(F)(F)F)cc4)CC3)c2C1 (stereo not drawn) [Example 22, 4-(4-(3-(4-(Trifluoromethoxy)phenyl)propyl)piperazin-1-ylsulfonyl)-2,3-dihydro-1H-indene-2-carboxylic acid]
< 5 | 5 to 100 | 5 to 100 | C[C@@H]1CN(CCc2ccc(SC(F)(F)F)cc2)C[C@H](C)N1S(=O)(=O)c1cccc2c1CC(C(=O)O)C2 (stereo partly drawn) [Example 23, 4-((cis)-2,6-Dimethyl-4-(4-(trifluoromethylthio)phenethyl)piperazin-1-ylsulfonyl)-2,3-dihydro-1H-indene-2-carboxylic acid]
< 5 | > 100 | > 100 | C[C@@H]1CN(CCc2ccc(Cl)cc2)C[C@H](C)N1S(=O)(=O)c1cccc2c1CC(C(=O)O)C2 (stereo partly drawn) [Example 24, 4-(4-(4-chlorophenethyl)-(cis)-2,6-dimethylpiperazin-1-ylsulfonyl)-2,3-dihydro-1H-indene-2-carboxylic acid]
< 5 | > 100 | > 100 | C[C@@H]1CN(CC2(c3ccc(Cl)cc3)CC2)C[C@H](C)N1S(=O)(=O)c1cccc2c1CC(C(=O)O)C2 (stereo partly drawn) [Example 25, 4-(4-((1-(4-chlorophenyl)cyclopropyl)methyl)-(cis)-2,6-dimethylpiperazin-1-ylsulfonyl)-2,3-dihydro-1-H-indene-2-carboxylic acid]
< 5 | > 100 | > 100 | C[C@@H]1CN(CCc2ccc(C(F)(F)F)c(F)c2)C[C@H](C)N1S(=O)(=O)c1cccc2c1CC(C(=O)O)C2 (stereo partly drawn) [Example 26, 4-(4-(3-Fluoro-4-(trifluoromethyl)phenethyl)-(cis)-2,6-dimethylpiperazin-1-ylsulfonyl)-2,3-dihydro-1H-indene-2-carboxylic acid]
< 5 | > 100 | > 100 | C[C@@H]1CN(CCc2ccc(Cl)c(Cl)c2)C[C@H](C)N1S(=O)(=O)c1cccc2c1CC(C(=O)O)C2 (stereo partly drawn) [Example 27]
> 100 | > 100 | > 100 | C[C@@H]1CN(CC(c2ccc(Cl)cc2)c2ccc(Cl)cc2)C[C@H](C)N1S(=O)(=O)c1cccc2c1CC(C(=O)O)C2 (stereo partly drawn) [Example 28, 4-(4-(2,2bis(4-Chlorophenyl)ethyl)-(cis)-2,6-dimethylpiperazin-1-ylsulfonyl)-2,3-dihydro-1H-indene-2-carboxylic acid]
